According to PubChem BioAssay (NCI):
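In this assay, cells in 96-well plates receive the compound at five concentrations for 48 hours. Endpoints are linearly interpolated between the surrounding concentrations. TGI marks complete inhibition of growth.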 Where a SMILES comes first, the peptide text is derived from it. Peptide text beside a SMILES is read from it. [ ]: non-standard residue; d: D form. The star is where a group is joined. * marks the point of attachment. Phe(4-NO2) = N[CH](Cc1ccc([N+](=O)[O-])cc1)C(=O)O; Boc = CC(C)(C)OC(=O)*; OtBu = CC(C)(C)O*

Experiments:
Test in all cases: growth of human tumour cells (NCI), 48 h
NCI-H23 lung = test system: NCI-H23 lung
SK-MEL-28 melanoma = test system: SK-MEL-28 melanoma
CCRF-CEM leukemia = test system: CCRF-CEM leukemia
K-562 leukemia = test system: K-562 leukemia
KM12 colon = test system: KM12 colon
DU-145 prostate = test system: DU-145 prostate
NCI-H522 lung = test system: NCI-H522 lung
SR leukemia = test system: SR leukemia
OVCAR-8 ovarian = test system: OVCAR-8 ovarian

Structure (SMILES)	TGI (NCI-H23 lung) [µM]	TGI (SK-MEL-28 melanoma) [µM]	TGI (CCRF-CEM leukemia) [µM]	TGI (K-562 leukemia) [µM]	TGI (KM12 colon) [µM]	TGI (DU-145 prostate) [µM]	TGI (NCI-H522 lung) [µM]	TGI (SR leukemia) [µM]	TGI (OVCAR-8 ovarian) [µM]
C/C(=C/CC[C@](C)(OC1OC(CO)C(O)C(O)C1O)[C@H]1CC[C@]2(C)[C@@H]1CC[C@@H]1[C@@]3(C)CC[C@H](O)C(C)(C)[C@@H]3C[C@H](O)[C@]12C)CO (stereo partly drawn)	> 100	38.5	95.9	62.2	47.8	> 100	42.7	> 100	> 100
COC(=O)c1ccc(OCc2ccc3nc(-c4ccccc4)c(Cl)nc3c2)cc1	> 100	> 100	> 100		> 100	> 100	45.7	> 100	> 100
CCOc1cc(C=O)ccc1O	> 100	> 100		> 100	> 100	> 100	> 100	> 100	> 100
Cc1cc(S(=O)(=O)NC(=NCC(=O)NN)NN)c(S)cc1Cl	> 10	> 10	> 10	> 10	> 10	> 10	> 10	> 10	> 10
c1ccc(C/C(=N\Nc2nc3ccccc3o2)c2ccccn2)cc1	> 36.4		0.0473	3.66	6.67	8.38	18.9	2.05	1.42
COC(=O)C(Cc1ccc([N+](=O)[O-])cc1)NC(=O)C(CC(=O)OC(C)(C)C)NC(=O)OC(C)(C)C (stereo not drawn) (Boc-Asp(OtBu)-[Phe(4-NO2)]-OMe; configuration not given here)	> 100	57.4	> 100	> 100	> 100	> 100	> 100	54	> 100
Cn1c(=O)c2[nH]c(N/N=C3/SCC(=O)N3Cc3ccccc3)nc2n(C)c1=O	> 100	> 100	62.9	> 100	> 100	> 100	> 100	82.3	> 100
O=C1O/C(=C\c2ccc(O)cc2)C(c2ccc(O)c(Cl)c2)=C1Br	59.2	26.2	32.8	10.5	30.3	27.6	20.5	21	73.8
COCCCN1C(=O)C2c3[nH]c4ccccc4c3C3CCC(C(C)(C)C)CC3C2C1=O (stereo not drawn)	82.6	> 100	52.9	> 10	55.5	> 100	55.4	80.6	> 100
O=C(CCCN1CCc2[nH]c3cc(F)ccc3c2C1)c1ccc(F)cc1	28	34.9	30.9	22.5	26.9	26.1	35.6	26.1	28.4
BrCC[P+](c1ccccc1)(c1ccccc1)c1ccccc1		19.5	12.2	30.9	17.1	19.8		27.5	21.9
CN(C)CCNc1nc2ccccc2c2c1C(=O)c1ccccc1-2	1.82	2.84	4.05	0.396	2.11	1.51	0.895		2.26
CSCCC(NC(=O)C(CC(C)C)NC(=O)CNC(=O)OC(C)(C)C)C(=O)N(C)C (stereo not drawn) (Boc-Gly-Leu-Met-NMe2; configuration not given here)	> 100	> 100	> 100	> 100	> 100	> 100	> 100	> 100	> 100
COc1cc(C2S/C(=C/c3ccccc3)C(=O)N2c2ccc(Cl)cc2)cc(OC)c1OC (stereo not drawn)	> 100	> 100	> 100	> 100	> 100	> 100	21.2	> 100	> 100
C=CCOn1c(C=C)nc2c(C)cccc21	24.1	25.7	3.68	20.6	13		4.87	12.6	> 100
COC1=CC2(C=CC1=O)CCN=c1c(O)c3c(c(O)c12)=NC=N3 (stereo not drawn)	> 100	> 100	> 100	> 100	> 100	> 100	> 100	> 100	> 100
Cc1cccc(N2CCN(S(=O)(=O)c3ccc(Cl)cc3)C2=N)c1C	> 100	> 100		> 100	> 100	> 100		> 100	> 100
COc1ccc(C[C@H]2COC(=O)[C@@H]2Cc2cc(OC)c(OC)c(OC)c2)cc1OC	> 100	> 100	> 100	> 100	> 100	> 100	> 100	> 100	> 100
C=C(CCC(C(=O)O)C1CCC2(C)C3=C(CCC12C)C1(C)CCC(O)C(C)(C)C1CC3)C(C)C (stereo not drawn)	> 100	> 100		43.3	22.6	> 100	50.3	27.2	47.2
CSc1nc(Br)nc2c1ncn2C1CC(Oc2ccc(C)cc2)C(COc2ccc(C)cc2)O1 (stereo not drawn)	> 100	> 100	> 100		> 100	> 100	> 100		> 100
Cc1nn(C(=O)c2ccccc2O)c2c1C(c1ccc(O)cc1)SC(N)=N2 (stereo not drawn)	> 10	> 10	> 10	> 3.53	> 10	> 10	> 10	> 3.92	> 10
O=C1N2CCc3c([nH]c4ccccc34)C23CC2CCCC12S3 (stereo not drawn)	> 50	> 50		> 50	> 50	> 50	> 50	> 50	> 50
CC(C)CC1c2[nH]c3ccccc3c2C[C@H]2C(=O)NC(COC(C)(C)C)C(=O)N12 (stereo partly drawn)	91.3	> 100		92.7	80.2	> 100	35.4	46.2	> 100
